From ChEMBL document CHEMBL3885861, “Open TG-GATES”

Species: Rattus norvegicus
Assay: Open TG-GATES - Regimen: Daily Repeat
Assay type: toxicity, organism-based, Sprague-Dawley
Design: regimen Daily Repeat, gender Male, age 6 weeks
Conditions: in vivo, po, route gavage; for APTT / Bas / Eos / Fbg / Hb / Ht / Lym / MCH / MCHC / MCV / Mono / Neu / PT / Plat / RBC / Ret / WBC: tissue Blood; for KIDNEY_L / KIDNEY_R / KIDNEY_TOTAL: tissue Kidney; for LIVER: tissue Liver; for A/G / ALP / ALT / AST / BUN / CRE / Ca / Cl / DBIL / GLC / IP / K / LDH / Na / PL / RALB / TBIL / TC / TG / TP / gamma-GTP: tissue Plasma
[1] = 0 mg/kg, 72 h, dose level Control, time 3 day
[2] = 0 mg/kg, […], dose level Control, time 7 day
[3] = 0 mg/kg, […], dose level Control, time 14 day
[4] = 0 mg/kg, […], dose level Control, time 28 day
[5] = 75 mg/kg, 72 h, dose level Low, time 3 day
[6] = 75 mg/kg, […], dose level Low, time 7 day
[7] = 75 mg/kg, […], dose level Low, time 14 day
[8] = 75 mg/kg, […], dose level Low, time 28 day

## CN(C/C=C/C#CC(C)(C)C)Cc1cccc2ccccc12 [TERBINAFINE]
[1]
  TERMINAL_BW: 243.5 g
  APTT: 18.4 s
  Bas: 0.8%
  Eos: 1%
  Fbg: 227.8 mg/dL
  Hb: 13.5 g/dL
  Ht: 39.9%
  Lym: 76%
  MCH: 21.5 pg
  MCHC: 33.8%
  MCV: 63.4 fL
  Mono: 3%
  Neu: 19.2%
  PT: 11.8 s
  Plat: 117.2 x10_4/uL
  RBC: 629 x10_4/ul
  Ret: 5.9%
  WBC: 104.3 x10_2/uL
  KIDNEY_L: 1.1 g
  KIDNEY_R: 1.1 g
  KIDNEY_TOTAL: 2.2 g
  LIVER: 11.8 g
  A/G: 1.6
  ALP: 804.6 IU/L
  ALT: 34.2 IU/L
  AST: 66.8 IU/L
  BUN: 14.4 mg/dL
  CRE: 0.4 mg/dL
  Ca: 10.8 mg/dL
  Cl: 103.4 meq/L
  DBIL: 0.098 mg/dL
  GLC: 192.8 mg/dL
  IP: 7.3 mg/dL
  K: 4.2 meq/L
  LDH: 191.8 IU/L
  Na: 141.6 meq/L
  PL: 147.6 mg/dL
  RALB: 3.5 g/dL
  TBIL: 0.2 mg/dL
  TC: 74.6 mg/dL
  TG: 99.2 mg/dL
  TP: 5.6 g/dL
  gamma-GTP: 2 IU/L
[2]
  TERMINAL_BW: 279 g
  APTT: 18.7 s
  Bas: 1%
  Eos: 1%
  Fbg: 236 mg/dL
  Hb: 13.9 g/dL
  Ht: 41%
  Lym: 79.6%
  MCH: 20.8 pg
  MCHC: 33.8%
  MCV: 61.4 fL
  Mono: 2.8%
  Neu: 15.6%
  PT: 11.7 s
  Plat: 121.9 x10_4/uL
  RBC: 669.2 x10_4/ul
  Ret: 5.2%
  WBC: 118.9 x10_2/uL
  KIDNEY_L: 1.2 g
  KIDNEY_R: 1.2 g
  KIDNEY_TOTAL: 2.5 g
  LIVER: 13.3 g
  A/G: 1.5
  ALP: 874.6 IU/L
  ALT: 33.6 IU/L
  AST: 68.2 IU/L
  BUN: 15.4 mg/dL
  CRE: 0.4 mg/dL
  Ca: 10.7 mg/dL
  Cl: 102.8 meq/L
  DBIL: 0.094 mg/dL
  GLC: 201.8 mg/dL
  IP: 7.8 mg/dL
  K: 4.5 meq/L
  LDH: 212.4 IU/L
  Na: 141.8 meq/L
  PL: 140.2 mg/dL
  RALB: 3.5 g/dL
  TBIL: 0.1 mg/dL
  TC: 69.4 mg/dL
  TG: 95.8 mg/dL
  TP: 5.8 g/dL
  gamma-GTP: 0.8 IU/L
[3]
  TERMINAL_BW: 323.8 g
  APTT: 19.6 s
  Bas: 1%
  Eos: 0.8%
  Fbg: 220.4 mg/dL
  Hb: 14.7 g/dL
  Ht: 43.1%
  Lym: 84.2%
  MCH: 20.1 pg
  MCHC: 34.1%
  MCV: 59.1 fL
  Mono: 2.2%
  Neu: 12.2%
  PT: 11.5 s
  Plat: 109.6 x10_4/uL
  RBC: 729.8 x10_4/ul
  Ret: 4%
  WBC: 106.5 x10_2/uL
  KIDNEY_L: 1.2 g
  KIDNEY_R: 1.2 g
  KIDNEY_TOTAL: 2.5 g
  LIVER: 13.3 g
  A/G: 1.4
  ALP: 734.4 IU/L
  ALT: 34.8 IU/L
  AST: 67.2 IU/L
  BUN: 16 mg/dL
  CRE: 0.4 mg/dL
  Ca: 10.6 mg/dL
  Cl: 105 meq/L
  DBIL: 0.1 mg/dL
  GLC: 208.4 mg/dL
  IP: 7.2 mg/dL
  K: 3.7 meq/L
  LDH: 188.8 IU/L
  Na: 142.8 meq/L
  PL: 132.8 mg/dL
  RALB: 3.4 g/dL
  TBIL: 0.2 mg/dL
  TC: 63.6 mg/dL
  TG: 108 mg/dL
  TP: 5.8 g/dL
  gamma-GTP: 1 IU/L
[4]
  TERMINAL_BW: 389.8 g
  APTT: 20 s
  Bas: 1%
  Eos: 1.2%
  Fbg: 230.6 mg/dL
  Hb: 15.5 g/dL
  Ht: 43.8%
  Lym: 80%
  MCH: 20.4 pg
  MCHC: 35.4%
  MCV: 57.8 fL
  Mono: 2.4%
  Neu: 15.8%
  PT: 12 s
  Plat: 116.1 x10_4/uL
  RBC: 757.6 x10_4/ul
  Ret: 2.5%
  WBC: 135.2 x10_2/uL
  KIDNEY_L: 1.4 g
  KIDNEY_R: 1.4 g
  KIDNEY_TOTAL: 2.8 g
  LIVER: 15.6 g
  A/G: 1.3
  ALP: 719.6 IU/L
  ALT: 33.8 IU/L
  AST: 65.8 IU/L
  BUN: 17.6 mg/dL
  CRE: 0.5 mg/dL
  Ca: 10.5 mg/dL
  Cl: 104.4 meq/L
  DBIL: 0.092 mg/dL
  GLC: 226.4 mg/dL
  IP: 6.9 mg/dL
  K: 4 meq/L
  LDH: 224.4 IU/L
  Na: 141.8 meq/L
  PL: 129.2 mg/dL
  RALB: 3.5 g/dL
  TBIL: 0.2 mg/dL
  TC: 62.6 mg/dL
  TG: 110.2 mg/dL
  TP: 6 g/dL
  gamma-GTP: 1.4 IU/L
[5]
  TERMINAL_BW: 243.4 g
  APTT: 18.6 s
  Bas: 0.8%
  Eos: 0.8%
  Fbg: 233.4 mg/dL
  Hb: 13.4 g/dL
  Ht: 39.5%
  Lym: 80.4%
  MCH: 21.7 pg
  MCHC: 33.7%
  MCV: 64.3 fL
  Mono: 2.8%
  Neu: 15.4%
  PT: 11.5 s
  Plat: 121.6 x10_4/uL
  RBC: 615.4 x10_4/ul
  Ret: 6.2%
  WBC: 111.7 x10_2/uL
  KIDNEY_L: 1.1 g
  KIDNEY_R: 1.1 g
  KIDNEY_TOTAL: 2.1 g
  LIVER: 12.1 g
  A/G: 1.7
  ALP: 854 IU/L
  ALT: 35.2 IU/L
  AST: 67.2 IU/L
  BUN: 14.2 mg/dL
  CRE: 0.4 mg/dL
  Ca: 10.8 mg/dL
  Cl: 103.6 meq/L
  DBIL: 0.1 mg/dL
  GLC: 190.8 mg/dL
  IP: 7.3 mg/dL
  K: 4.2 meq/L
  LDH: 214.6 IU/L
  Na: 141.2 meq/L
  PL: 156 mg/dL
  RALB: 3.6 g/dL
  TBIL: 0.2 mg/dL
  TC: 80.6 mg/dL
  TG: 113.4 mg/dL
  TP: 5.7 g/dL
  gamma-GTP: 2 IU/L
[6]
  TERMINAL_BW: 274.5 g
  APTT: 19.2 s
  Bas: 1%
  Eos: 0.6%
  Fbg: 226 mg/dL
  Hb: 13.9 g/dL
  Ht: 40.6%
  Lym: 83%
  MCH: 21.7 pg
  MCHC: 34.3%
  MCV: 63.5 fL
  Mono: 2.4%
  Neu: 13.2%
  PT: 11.9 s
  Plat: 130.9 x10_4/uL
  RBC: 640.8 x10_4/ul
  Ret: 5.2%
  WBC: 112.5 x10_2/uL
  KIDNEY_L: 1.2 g
  KIDNEY_R: 1.2 g
  KIDNEY_TOTAL: 2.4 g
  LIVER: 13.1 g
  A/G: 1.6
  ALP: 944.6 IU/L
  ALT: 36.6 IU/L
  AST: 72.8 IU/L
  BUN: 16.2 mg/dL
  CRE: 0.4 mg/dL
  Ca: 10.6 mg/dL
  Cl: 103.8 meq/L
  DBIL: 0.1 mg/dL
  GLC: 188.2 mg/dL
  IP: 7.1 mg/dL
  K: 4.4 meq/L
  LDH: 217.6 IU/L
  Na: 142 meq/L
  PL: 152.8 mg/dL
  RALB: 3.6 g/dL
  TBIL: 0.2 mg/dL
  TC: 76.2 mg/dL
  TG: 112.8 mg/dL
  TP: 5.8 g/dL
  gamma-GTP: 1 IU/L
[7]
  TERMINAL_BW: 333.7 g
  APTT: 20.1 s
  Bas: 1%
  Eos: 1%
  Fbg: 219.4 mg/dL
  Hb: 14.6 g/dL
  Ht: 42.7%
  Lym: 79.8%
  MCH: 20.6 pg
  MCHC: 34%
  MCV: 60.4 fL
  Mono: 2.6%
  Neu: 15.4%
  PT: 11.3 s
  Plat: 129 x10_4/uL
  RBC: 707.4 x10_4/ul
  Ret: 4%
  WBC: 118.9 x10_2/uL
  KIDNEY_L: 1.3 g
  KIDNEY_R: 1.3 g
  KIDNEY_TOTAL: 2.5 g
  LIVER: 15.1 g
  A/G: 1.5
  ALP: 875.8 IU/L
  ALT: 36.8 IU/L
  AST: 71.4 IU/L
  BUN: 17.6 mg/dL
  CRE: 0.4 mg/dL
  Ca: 10.8 mg/dL
  Cl: 103.8 meq/L
  DBIL: 0.1 mg/dL
  GLC: 206.6 mg/dL
  IP: 7.2 mg/dL
  K: 3.8 meq/L
  LDH: 168.2 IU/L
  Na: 142.4 meq/L
  PL: 140.4 mg/dL
  RALB: 3.5 g/dL
  TBIL: 0.2 mg/dL
  TC: 65.4 mg/dL
  TG: 123 mg/dL
  TP: 5.9 g/dL
  gamma-GTP: 0.8 IU/L
[8]
  TERMINAL_BW: 399 g
  APTT: 21.8 s
  Bas: 0.8%
  Eos: 1%
  Fbg: 210.8 mg/dL
  Hb: 15 g/dL
  Ht: 42.9%
  Lym: 80.6%
  MCH: 19.7 pg
  MCHC: 34.8%
  MCV: 56.7 fL
  Mono: 2.2%
  Neu: 15%
  PT: 12.2 s
  Plat: 114.8 x10_4/uL
  RBC: 758.2 x10_4/ul
  Ret: 2.7%
  WBC: 135.9 x10_2/uL
  KIDNEY_L: 1.5 g
  KIDNEY_R: 1.6 g
  KIDNEY_TOTAL: 3.1 g
  LIVER: 17.5 g
  A/G: 1.3
  ALP: 602 IU/L
  ALT: 41.4 IU/L
  AST: 76.2 IU/L
  BUN: 17.2 mg/dL
  CRE: 0.5 mg/dL
  Ca: 10.3 mg/dL
  Cl: 104.4 meq/L
  DBIL: 0.086 mg/dL
  GLC: 223.4 mg/dL
  IP: 7.2 mg/dL
  K: 4.1 meq/L
  LDH: 230.6 IU/L
  Na: 141 meq/L
  PL: 127.2 mg/dL
  RALB: 3.4 g/dL
  TBIL: 0.2 mg/dL
  TC: 64.8 mg/dL
  TG: 87.4 mg/dL
  TP: 6.1 g/dL
  gamma-GTP: 1.2 IU/L
